The text below walks through data of ChEMBL document CHEMBL5143660, “Investigation on the chemical space of the substituted triazole thio-benzoxazepinone RIPK1 inhibitors” (Eur J Med Chem, 2022).

Data set [1] in a line: Cytotoxicity against human HT-29 cells assessed as reduction in cell viability. The data set is classed as toxicity, cell-based.
The test system of the next data set is HT-29. The experiment in a line: Anti-necroptic activity in human HT-29 cells assessed as inhibition of TSZ induced necroptosis measured after 16 to 24 hrs by celltiter-glo luminescent cell viability assay. The data set is classed as functional, cell-based. For orientation: Cellular ATP, detected with luciferase, serves as a proxy for viable cell number.
In data set [2] the target is T1, Receptor-interacting serine/threonine-protein kinase 1 (Homo sapiens, UniProt Q13546).
T1 sequence (Q13546 whole entry): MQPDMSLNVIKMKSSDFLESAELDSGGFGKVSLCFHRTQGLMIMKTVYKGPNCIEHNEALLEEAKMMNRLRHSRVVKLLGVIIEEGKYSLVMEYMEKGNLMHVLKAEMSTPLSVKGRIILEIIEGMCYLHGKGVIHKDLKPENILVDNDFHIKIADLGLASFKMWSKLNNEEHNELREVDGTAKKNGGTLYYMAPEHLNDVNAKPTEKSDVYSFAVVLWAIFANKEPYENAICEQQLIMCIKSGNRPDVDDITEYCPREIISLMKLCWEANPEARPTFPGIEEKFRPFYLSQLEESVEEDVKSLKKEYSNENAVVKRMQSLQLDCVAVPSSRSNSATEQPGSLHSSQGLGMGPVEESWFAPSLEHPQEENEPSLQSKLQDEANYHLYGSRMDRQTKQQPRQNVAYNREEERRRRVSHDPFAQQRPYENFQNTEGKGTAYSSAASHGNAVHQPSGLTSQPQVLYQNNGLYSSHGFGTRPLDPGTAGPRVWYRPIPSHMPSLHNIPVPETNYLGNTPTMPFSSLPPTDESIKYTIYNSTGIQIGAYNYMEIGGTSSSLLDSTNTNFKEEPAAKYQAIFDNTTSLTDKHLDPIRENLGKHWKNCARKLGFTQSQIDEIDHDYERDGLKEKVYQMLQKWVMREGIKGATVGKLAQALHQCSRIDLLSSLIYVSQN
The experiment in a line: Binding affinity to wild-type human partial length RIPK1 (M1 to K305 residues) expressed in bacterial expression system incubated for 1 hr under shaking condition by Kinomescan method.

Consider `CN1C(=S)[C@@H](NC(=O)c2nc(Cc3ccccc3)n(CCCC(F)(F)F)n2)COc2ccccc21`, for which the 50% cytotoxic concentration (CC50) – broadly, the concentration at which the toxic effect on the cells reaches its halfway point – in data set [1] is greater than 100 µM. For the same compound, the EC50 (as a rule, the concentration at which the effect is half-maximal) in the data set with HT-29 was determined as 2.38 µM.

For `CN1C(=S)[C@@H](NC(=O)c2nc(Cc3ccccc3)n(C3CCNC3)n2)COc2ccccc21` (stereo not given in full), the CC50 in data set [1] is greater than 100 µM. In addition, the concentration for a half-maximal effect (EC50) in the data set on HT-29 amounted to 1.07 µM.

As for `CN1C(=S)[C@@H](NC(=O)c2nc(Cc3ccccc3)n(C3CCNCC3)n2)COc2ccccc21`, the CC50 in data set [1] was greater than 100 µM. In the data set with HT-29, the concentration for a half-maximal effect (EC50) was 1 µM.

For `Cc1cnc(-n2nc(C(=O)N[C@H]3COc4ccccc4N(C)C3=S)nc2Cc2ccccc2)nc1`, the half-maximal cytotoxic concentration (CC50) in data set [1] was greater than 100 µM. In the data set with HT-29, the EC50 was 1.95 µM.

On to `CN1C(=S)[C@@H](NC(=O)c2nc(Cc3ccccc3)n(CC3CCOCC3)n2)COc2ccccc21`, for which the CC50 in data set [1] is greater than 100 µM. The EC50 with HT-29 is 6.31 µM.

As to `CN1C(=S)[C@@H](NC(=O)c2nc(Cc3ccccc3)n(CC3CCOC3)n2)COc2ccccc21` (stereo not given in full), in data set [1], the 50% cytotoxic concentration (CC50) is greater than 100 µM. Further, the EC50 with HT-29 was found to be 4.42 µM.

Consider `CN1C(=S)[C@@H](NC(=O)c2nc(Cc3ccccc3)n(C3CCN(C(=O)OC(C)(C)C)CC3)n2)COc2ccccc21`, for which the CC50 in data set [1] was greater than 100 µM. Also, the concentration for a half-maximal effect (EC50) with HT-29 is greater than 10 µM.

Take `CCCCCn1nc(C(=O)N[C@H]2COc3ccccc3N(C)C2=S)nc1Cc1ccccc1`: the cytotoxic concentration (CC50) in data set [1] was greater than 100 µM. For the same compound, the 50% effective concentration (EC50) in the data set on HT-29 turned out to be 0.805 µM.

On to `CN1C(=S)[C@@H](NC(=O)c2nc(Cc3ccccc3)n(C3CCCCCC3)n2)COc2ccccc21`, for which, in data set [1], the CC50 was greater than 100 µM. Moreover, the EC50 in the data set with HT-29 was determined as 5.53 µM.

Consider `CCCCn1nc(C(=O)N[C@H]2COc3ccccc3N(C)C2=S)nc1Cc1ccccc1`, for which the CC50 in data set [1] was greater than 100 µM. Further, the EC50 in the data set on HT-29 amounted to 0.51 µM.

For `CCCn1nc(C(=O)N[C@H]2COc3ccccc3N(C)C2=S)nc1Cc1ccccc1`, the 50% cytotoxic concentration (CC50) in data set [1] was greater than 100 µM. In addition, the concentration for a half-maximal effect (EC50) with HT-29 was 0.288 µM.

In the case of `CN1C(=S)[C@@H](NC(=O)c2nc(Cc3ccccc3)n(C3CCC3)n2)COc2ccccc21`, in data set [1], the CC50 is greater than 100 µM. Besides, the EC50 with HT-29 was 0.181 µM. Further, the Kd (as a rule, the constant that tells how readily two partners part at equilibrium) in data set [2] was determined as 0.301 µM.

In the case of `CN1C(=S)[C@@H](NC(=O)c2nc(Cc3ccccc3)n(C3CCCCC3)n2)COc2ccccc21`, the CC50 in data set [1] was greater than 100 µM. In addition, the concentration giving a half-maximal response (EC50) in the data set on HT-29 is 4 µM.

With `CN1C(=S)[C@@H](NC(=O)c2nc(Cc3ccccc3)n(CCCC#N)n2)COc2ccccc21`, the CC50 in data set [1] is greater than 100 µM. Moreover, in the data set on HT-29, the concentration for a half-maximal effect (EC50) was found to be 2.4 µM.

`CC(C)Cn1nc(C(=O)N[C@H]2COc3ccccc3N(C)C2=S)nc1Cc1ccccc1`: the cytotoxic concentration (CC50) in data set [1] was greater than 100 µM. The concentration for a half-maximal effect (EC50) in the data set with HT-29 was 1.23 µM.

For the compound `CN1C(=S)[C@@H](NC(=O)c2nc(Cc3ccccc3)n(C3CCOCC3)n2)COc2ccccc21`, the cytotoxic concentration (CC50) in data set [1] is greater than 100 µM. Moreover, the EC50 in the data set with HT-29 worked out at 2.26 µM.

For `CN1C(=S)[C@@H](NC(=O)c2nc(Cc3ccccc3)n(CCC(F)(F)F)n2)COc2ccccc21`, in data set [1], the half-maximal cytotoxic concentration (CC50) was greater than 100 µM. The EC50 with HT-29 is 1.55 µM.

For `CC(C)CCn1nc(C(=O)N[C@H]2COc3ccccc3N(C)C2=S)nc1Cc1ccccc1`, the 50% cytotoxic concentration (CC50) in data set [1] was greater than 100 µM. Further, the concentration giving a half-maximal response (EC50) in the data set on HT-29 was 3.64 µM.

In the case of `CN1C(=S)[C@@H](NC(=O)c2nc(Cc3ccccc3)n(CC(F)F)n2)COc2ccccc21`, the CC50 in data set [1] is greater than 100 µM. Moreover, the concentration for a half-maximal effect (EC50) in the data set on HT-29 amounted to 0.0089 µM.

With `CN1C(=S)[C@@H](NC(=O)c2n[nH]c(Cc3ccccc3)n2)COc2ccccc21`, in data set [1], the half-maximal cytotoxic concentration (CC50) was greater than 50 µM. In addition, the Kd in data set [2] worked out at 0.031 µM.

As to `CN1C(=S)[C@@H](NC(=O)c2nc(Cc3ccccc3)n(CCCF)n2)COc2ccccc21`, in data set [1], the 50% cytotoxic concentration (CC50) is greater than 100 µM. Besides, the EC50 in the data set on HT-29 came to 4.76 µM.

With `CN1C(=S)[C@@H](NC(=O)c2nc(Cc3ccccc3)n(-c3ncccn3)n2)COc2ccccc21`, in data set [1], the cytotoxic concentration (CC50) was greater than 100 µM. Also, the concentration for a half-maximal effect (EC50) in the data set on HT-29 turned out to be 3.97 µM.

In the case of `CN1C(=S)[C@@H](NC(=O)c2nc(Cc3ccccc3)n(CCCO)n2)COc2ccccc21`, the 50% cytotoxic concentration (CC50) in data set [1] is greater than 100 µM. Further, the half-maximal effective concentration (EC50) with HT-29 was found to be 0.208 µM.

In the case of `CN1C(=S)[C@@H](NC(=O)c2nc(Cc3ccccc3)n(C3CCCC3)n2)COc2ccccc21`, the CC50 in data set [1] is greater than 100 µM. The EC50 in the data set with HT-29 is 3.53 µM.

For the compound `CN1C(=S)[C@@H](NC(=O)c2nc(Cc3ccccc3)n(CC(F)(F)F)n2)COc2ccccc21`, the half-maximal cytotoxic concentration (CC50) in data set [1] is greater than 100 µM. The concentration for a half-maximal effect (EC50) in the data set with HT-29 is 0.036 µM. In data set [2], this compound showed a Kd of 0.267 µM.

Turning to `CN1C(=S)[C@@H](NC(=O)c2nc(Cc3ccccc3)n(C3CCN(C(=O)OC(C)(C)C)C3)n2)COc2ccccc21` (stereo not given in full), the CC50 in data set [1] is greater than 100 µM. For the same compound, the EC50 in the data set with HT-29 is greater than 10 µM.

Take `CN1C(=S)[C@@H](NC(=O)c2nc(Cc3ccccc3)n(C3CCOC3)n2)COc2ccccc21` (stereo not given in full): in data set [1], the CC50 is greater than 100 µM. Moreover, the 50% effective concentration (EC50) with HT-29 turned out to be 1.58 µM. The compound further registered a dissociation constant (Kd) in data set [2] of 0.272 µM.

Take `CN1C(=S)[C@@H](NC(=O)c2nc(Cc3ccccc3)n(Cc3ccccc3)n2)COc2ccccc21`: in data set [1], the CC50 was greater than 100 µM. Also, in the data set with HT-29, the EC50 was determined as 0.414 µM.

In the case of `CN1C(=S)[C@@H](NC(=O)c2nc(Cc3ccccc3)n(CC3COC3)n2)COc2ccccc21`, the cytotoxic concentration (CC50) in data set [1] was greater than 100 µM. For the same compound, the EC50 in the data set on HT-29 stood at 2.83 µM.

For the compound `CN1C(=O)[C@@H](NC(=O)c2nnc(Cc3ccccc3)[nH]2)COc2ccccc21` [GSK2982772], in data set [1], the CC50 was greater than 50 µM.

As for `CN1C(=S)[C@@H](NC(=O)c2nc(Cc3ccccc3)n(CCCCCC#N)n2)COc2ccccc21`, in data set [1], the CC50 is greater than 100 µM. Besides, in the data set on HT-29, the 50% effective concentration (EC50) was 3.83 µM.

With `COCCn1nc(C(=O)N[C@H]2COc3ccccc3N(C)C2=S)nc1Cc1ccccc1`, in data set [1], the cytotoxic concentration (CC50) is greater than 100 µM. Moreover, the 50% effective concentration (EC50) with HT-29 worked out at 0.566 µM.

For the compound `CN1C(=S)[C@@H](NC(=O)c2nc(Cc3ccccc3)n(CCCCC#N)n2)COc2ccccc21`, the cytotoxic concentration (CC50) in data set [1] is greater than 100 µM. The EC50 with HT-29 worked out at 2.68 µM.

With `CC(C)n1nc(C(=O)N[C@H]2COc3ccccc3N(C)C2=S)nc1Cc1ccccc1`, the CC50 in data set [1] is greater than 100 µM. Also, the half-maximal effective concentration (EC50) in the data set on HT-29 was 0.36 µM.

As to `CCn1nc(C(=O)N[C@H]2COc3ccccc3N(C)C2=S)nc1Cc1ccccc1`, in data set [1], the CC50 is greater than 100 µM. Besides, the EC50 in the data set on HT-29 was found to be 0.017 µM. Moreover, in data set [2], binding was characterised by a dissociation constant (Kd) of 0.079 µM.

Turning to `CN1C(=S)[C@@H](NC(=O)c2nc(Cc3ccccc3)n(C3COC3)n2)COc2ccccc21`, the 50% cytotoxic concentration (CC50) in data set [1] was greater than 100 µM. In addition, the EC50 with HT-29 came out at 0.916 µM.
